System: Human primary myoblasts
Assay: Myogenic amplification and commitment of muscle stem cells (Pax7/MyoD staining of human primary myoblasts)
Assay type: cell-based
Conditions: donors 1 and 2 pooled, normalized to total cell number, control DMSO 1%, 96 hours; for proportion of MyoD+ cells, fold change compared to the control condition: FIG. 1B/2B
Description: Human Skeletal Muscle Myoblasts were purchased from Lonza (https://bioscience.lonza.com). These cells were isolated from the upper arm or leg muscle tissue of normal donors and used after the second passage. Several donors were tested to ensure cell viability and purity before selecting the final donors, which are a person (refer thereafter as Donor 1), a person (refer thereafter as Donor 2) and a person (refer thereafter as Donor 3). Human primary myoblasts were seeded in 384 well plates at a density of 1'000 cells per well in skeletal muscle growth medium (SKM-M, AMSbio). For treatment, compounds were directly added to the myoblast cultures 16 hours after initial plating. All cultures were then grown for 96 hours. Cells were stained for Pax7 and MyoD expression using antibodies directed against Pax7 and MyoD and counterstained with Hoechst 33342 to visualize cell nuclei. Pax7+ cells are defined as cells that express Pax7 regardless of MyoD expression. […] Image acquisition was performed using the ImageXpress (Molecular Devices) platform. Custom module analysis based on Multi-Wavelength Cell Scoring of the MetaXpress software was used for quantification. *, **, ***, **** indicates difference from the control, One-way ANOVA, with p<0.05, p<0.01, p<0.001, p<0.0001, respectively. Data are presented as Mean+/−SEM Human primary myoblasts from different donors (donor 1, donor 2 or donor 3) were seeded in 384 well plates at a density of 1′000 cells per well in skeletal muscle growth medium (SKM-M, AMSbio). For treatment, compounds were directly added to the myoblast cultures 16 hours after initial plating. All cultures were then grown for 96 hours. Cells were stained for Pax7 and MyoD expression using antibodies directed against Pax7 and MyoD and counterstained with Hoechst 33342 to visualize cell nuclei. Pax7+ cells are defined as cells that express Pax7 regardless of MyoD expression. […] Image acquisition was performed using the ImageXpress (Molecular Devices) platform. Custom module analysis based on Multi-Wavelength Cell Scoring of the MetaXpress software was used for quantification. […]

| Compound | proportion of MyoD+ cells, fold change compared to the control condition | proportion of Pax7+ cells, fold change compared to the control condition (FIG. 1A/2A) |
| --- | --- | --- |
| Cc1ncc(CO)c(CO)c1O [Pyridoxine] | increasing the proportion of differentiating (MyoD+) cells in a dose dependent manner | – |
| NC(=O)c1cccnc1 [Nicotinamide] | increasing the proportion of both amplifying (Pax7+) and differentiating (MyoD+) cells in a dose dependent manner | increasing the proportion of both amplifying (Pax7+) and differentiating (MyoD+) cells in a dose dependent manner |
